Experimental data: patent US6028195A, “Piperazine derivatives and process for the preparation thereof” (Samjin Pharmaceutical Co., Ltd., priority 1996, dated 2000)
Converted amounts (≈) assume the structure as drawn. Like-named read-outs stand apart in the source and are kept apart here.

Experiments:
[1] = system: mouse leukemia P388 cells; test: In vivo antitumor effects against mouse leukemia P388 cells in BDF1 mice; conditions: P388, ip, abdominal cavity
Procedure: In vivo antitumor effects against mouse leukemia P388 cells.
1) Leukemia P388 cells being transfer-cultured successively in DBA/2 mouse, were grafted into each mouse of a group comprising 8 mice of 6 week old BDF1 mouse with the dose of 1×10^6 cells/0.1 ml. […]
3) With observation everyday, survival times of tested mice were measured. Antitumor activities was determined in such a manner that the increasing ratio(T/C%) of average survival days of drug-treated groups compared with the control group was calculated using the mean survival times of each tested groups.

[2] = Acute toxicity test (LD50), Litchfield-Wilcoxon method; conditions: mouse, in vivo, ip, male ICR mice, 14 days
Procedure: Acute toxicity test (LD50): Litchfield-Wilcoxon method.
6 weeks old ICR mice(male 30±2.0 g) were fed freely with solid feed and water at room temperature, 23±1° C. and at humidity 60±5%. Sample drugs were injected into the abdominal cavities of mice, while each group comprises 6 mice. Observed during 14 days, external appearances and life or dead were recorded, and then, visible pathogenies were observed from dead animals by dissection. LD50 value was calculated by Litchfiled-wilcoxon method.

[3] = system: A549 (human non-small lung cell); test: SRB assay, in vitro antitumor effect against A549; format: cell-based; conditions: Homo sapiens; A549, 48 hours; read-out: ED50 (the source's name)
Procedure: (§1) In vitro antitumor effect against human tumor cell lines.
(§2) b. 5×10^3 ~2×10^4 cells were added into each well of 96-well plate and cultured in 5% CO2 incubator, at 37° C., for 24 hours.
(§3) c. Each sample drug was dissolved in a little DMSO and diluted with the used medium to a prescribed concentration for experiments, wherein the final concentration of DMSO was controlled below 0.5%.
(§4) d. Medium of each well cultured for 24 hours as above b. was removed by aspiration. Each 200 μl of drug samples prepared in c. was added into each well and the wells were cultured for 48 hours. Tz(time zero) plates were collected at the point of time drugs were added.
(§5) e. According to the SRB assay method, cell fixing with TCA, staining with 0.4% SRB solution, washing with 1% acetic acid and elution of dye with 10 mM Tris solution were carried out on Tz plates and culture-ended plates, and then, OD values were measured at 520 nm.
(§6) a. Time zero(Tz) value was determined with measuring the SRB protein value at the point of time drugs were added.
(§7) b. Control value(C) was determined with the OD value of an well untreated with drug.
(§8) c. Drug-treated test value(T) was determined with the OD value of drug-treated well.
(§9) d. Effects of drugs were estimated with growth stimulation, net growth inhibition, net killing etc. calculated from Tz, C and T.
(§10) e. If T≥Tz, cellular response function was calculated by 100×(T-Tz)/(C-Tz), and if T<Tz, by 100×(T-Tz)/Tz.

[4] = system: SKOV-3 (human ovarian); test: SRB assay, in vitro antitumor effect against SKOV-3; format: cell-based; conditions: Homo sapiens; SK-OV-3, 48 hours; read-out: ED50 (the source's name)
Procedure: as §1, §2, §3, §4, §5, §6, §7, §8, §9, §10

[5] = system: SKMEL-2 (human melanoma); test: SRB assay, in vitro antitumor effect against SKMEL-2; format: cell-based; conditions: Homo sapiens; SK-MEL-2, 48 hours; read-out: ED50 (the source's name)
Procedure: as §1, §2, §3, §4, §5, §6, §7, §8, §9, §10

[6] = system: XF 498 (human CNS); test: SRB assay, in vitro antitumor effect against XF 498; format: cell-based; conditions: Homo sapiens, XF498; XF-498, 48 hours; read-out: ED50 (the source's name)
Procedure: as §1, §2, §3, §4, §5, §6, §7, §8, §9, §10

[7] = system: HCT-15 (human colon); test: SRB assay, in vitro antitumor effect against HCT-15; format: cell-based; conditions: Homo sapiens; HCT 15, 48 hours; read-out: ED50 (the source's name)
Procedure: as §1, §2, §3, §4, §5, §6, §7, §8, §9, §10

[8] = on days 1, 5, 9, read-out: T/C(%)
[9] = nine everyday, read-out: T/C(%)
[10] = on days 1, 4, 8, read-out: T/C(%)

Structure (SMILES)	LD50 at 336 h [2]	IC50 [3]	IC50 [4]	IC50 [5]	IC50 [6]	IC50 [7]	response vs control in vivo at 25 mg/kg [1, 9]	response vs control in vivo at 50 mg/kg [1, 9]	also measured
CCCc1cc(NC(=O)N2CCN(c3cc(OC)cc(OC)c3)CC2)c(OC)nc1C [Example 8, 1-[(2-Methoxy-6-methyl-5-propylpyridin-3-yl)aminocarbonyl]-4-(3,5-dimethoxyphenyl)piperazine]	707 mg/kg								response vs control in vivo at 100 mg/kg [1, 8]: 104%; response vs control in vivo at 200 mg/kg [1, 8]: 141%
CCc1nc(OC)c(NC(=O)N2CCN(c3cc(OC)cc(OC)c3)CC2)cc1C [Example 12, 1-[(6-Ethyl-2-methoxy-5-methylpyridin-3-yl)aminocarbonyl]-4-(3,5-dimethoxyphenyl)piperazine]	165 mg/kg								
CCc1nc(OC)c(NC(=O)N2CCN(c3cc(C)cc(C)c3)CC2)cc1C [Example 13, 1-[(6-Ethyl-2-methoxy-5-methylpyridin-3-yl)aminocarbonyl]-4-(3,5-dimethylphenyl)piperazine]	285 mg/kg								
CCCc1nc(OC)c(NC(=O)N2CCN(c3cc(OC)cc(OC)c3)CC2)cc1C [Example 15, 1-[(2-Methoxy-5-methyl-6-propylpyridin-3-yl)aminocarbonyl]-4-(3,5-dimethoxyphenyl)piperazine]	190 mg/kg	0.002 µg/mL (≈ 0.00467 µM)	0.05 µg/mL (≈ 0.117 µM)	0.052 µg/mL (≈ 0.121 µM)	0.035 µg/mL (≈ 0.0817 µM)	0.038 µg/mL (≈ 0.0887 µM)	150%		response vs control in vivo at 10 mg/kg [1, 9]: 110%
CCCc1nc(OC)c(NC(=O)N2CCN(c3cc(C)cc(C)c3)CC2)cc1C [Example 16, 1-[(2-Methoxy-5-methyl-6-propylpyridin-3-yl)aminocarbonyl]-4-(3,5-dimethylphenyl)piperazine]	283 mg/kg	0.008 µg/mL (≈ 0.0202 µM)	0.04 µg/mL (≈ 0.101 µM)	0.038 µg/mL (≈ 0.0958 µM)	0.005 µg/mL (≈ 0.0126 µM)	0.061 µg/mL (≈ 0.154 µM)	110%	165%	
COc1nc(C)c(C)cc1NC(=S)N1CCN(c2cc(C)cc(C)c2)CC1 [Example 22, 1-[(5,6-Dimethyl-2-methoxypyridin-3-yl)aminothiocarbonyl]-4-(3,5-dimethylphenyl)piperazine]	> 2000 mg/kg	0.0009 µg/mL (≈ 0.00234 µM)	0.006 µg/mL (≈ 0.0156 µM)	0.027 µg/mL (≈ 0.0702 µM)	0.0053 µg/mL (≈ 0.0138 µM)	0.01 µg/mL (≈ 0.026 µM)	110%	140%	response vs control in vivo at 100 mg/kg [1, 9]: 150%
CCCc1nc(OC)c(NC(=S)N2CCN(c3cccc(O)c3)CC2)cc1C [Example 28, 1-[(2-Methoxy-5-methyl-6-propylpyndin-3-yl)aminothiocarbonyl]-4-(3-hydroxyphenyl)piperazine]	> 2000 mg/kg	0.06 µg/mL (≈ 0.15 µM)	0.07 µg/mL (≈ 0.175 µM)	0.001 µg/mL (≈ 0.0025 µM)	0.41 µg/mL (≈ 1.02 µM)	0.05 µg/mL (≈ 0.125 µM)			
COc1cc(OC)cc(N2CCN(C(=O)Nc3cc(C(C)O)c(C)nc3OC)CC2)c1 (stereo not shown) [Example 56, 1-{[5-(1-Hydroxyethyl)-2-methoxy-6-methylpyridin-3-yl]aminocarbonyl}-4-(3,5-dimethoxyphenyl)piperazine]	410 mg/kg	0.017 µg/mL (≈ 0.0395 µM)	0.0027 µg/mL (≈ 0.00627 µM)	0.01 µg/mL (≈ 0.0232 µM)	0.013 µg/mL (≈ 0.0302 µM)	0.045 µg/mL (≈ 0.105 µM)	145%	165%	response vs control in vivo at 10 mg/kg [1, 9]: 140%; response vs control in vivo at 50 mg/kg [1, 8]: 118%; response vs control in vivo at 100 mg/kg [1, 8]: 141%; response vs control in vivo at 200 mg/kg [1, 8]: 227%
COc1nc(C)c(C(C)O)cc1NC(=O)N1CCN(c2cc(C)cc(C)c2)CC1 (stereo not shown) [Example 57, 1-{[5-(1-Hydroxyethyl)-2-methoxy-6-methylpyridin-3-yl]aminocarbonyl}-4-(3,5-dimethylphenyl)piperazine]	455 mg/kg	0.27 µg/mL (≈ 0.678 µM)	0.15 µg/mL (≈ 0.376 µM)	0.18 µg/mL (≈ 0.452 µM)	0.22 µg/mL (≈ 0.552 µM)	0.25 µg/mL (≈ 0.627 µM)			
COc1cc(OC)cc(N2CCN(C(=O)N(C)c3cc4ccccc4nc3OC)CC2)c1 [Example 98, 1-[N-(2-Methoxyquinolin-3-yl)-N-methylaminocarbonyl]-4-(3,5-dimethoxyphenyl)piperazine]							110%	110%	response vs control in vivo at 100 mg/kg [1, 9]: 150%
COc1nc(C)c(C)cc1N(C)C(=O)N1CCN(c2cc(C)cc(C)c2)CC1 [Example 135, 1-[N-(5,6-Dimethyl-2-methoxypyridin-3-yl)-N-methylaminocarbonyl]-4-(3,5-dimethylphenyl)piperazine]		0.056 µg/mL (≈ 0.146 µM)	0.092 µg/mL (≈ 0.241 µM)	0.102 µg/mL (≈ 0.267 µM)	0.06 µg/mL (≈ 0.157 µM)	0.066 µg/mL (≈ 0.173 µM)	100%	110%	response vs control in vivo at 100 mg/kg [1, 9]: 150%
CCc1cc(N(C)C(=O)N2CCN(c3cc(C)cc(C)c3)CC2)c(OC)nc1C [Example 144, 1-[N-(5-Ethyl-2-methoxy-6-methylpyridin-3-yl)-N-methylaminocarbonyl]-4-(3,5-dimethylphenyl)piperazine]								110%	response vs control in vivo at 100 mg/kg [1, 9]: 110%; response vs control in vivo at 200 mg/kg [1, 9]: 125%
COc1cc(C)c(C)cc1NC(=O)N1CCN(c2ccccc2)CC1 [Example 170, 1-[(4,5-Dimethyl-2-methoxyphenyl)aminocarbonyl]-4-phenylpiperzine]	573 mg/kg								
COc1cc(OC)cc(N2CCN(C(=O)Nc3cc(C)c(C)cc3OC)CC2)c1 [Example 171, 1-[(4,5-Dimethyl-2-methoxyphenyl)aminocarbonyl]-4-(3,5-dimethoxyphenyl)piperazine]		0.000645 µg/mL (≈ 0.00161 µM)	0.00372 µg/mL (≈ 0.00931 µM)	0.00323 µg/mL (≈ 0.00809 µM)	0.000572 µg/mL (≈ 0.00143 µM)	0.00181 µg/mL (≈ 0.00453 µM)			response vs control in vivo at 25 mg/kg [1, 10]: 100%; response vs control in vivo at 50 mg/kg [1, 10]: 100%; response vs control in vivo at 100 mg/kg [1, 10]: 140%
COc1cc(C)c(C)cc1NC(=O)N1CCN(c2cccc(OC(C)=O)c2)CC1 [Example 182, 1-[(4,5-Dimethyl-2-methoxyphenyl)aminocarbonyl]-4-(3-acetoxyphenyl)piperazine]	348 mg/kg								
COc1ccc(C)c(N2CCN(C(=O)Nc3cc(C)c(C)cc3OC)CC2)c1 [Example 184, 1-[(4,5-Dimethyl-2-methoxyphenyl)aminocarbonyl]-4-(5-methoxy-2-methylphenyl)piperazine]	309 mg/kg	0.28 µg/mL (≈ 0.73 µM)	0.34 µg/mL (≈ 0.887 µM)	0.17 µg/mL (≈ 0.443 µM)	0.12 µg/mL (≈ 0.313 µM)	0.2 µg/mL (≈ 0.522 µM)			
COc1cc(C)c(C)cc1NC(=O)N1CCN(c2cc(-c3ccccc3)ccc2OC)CC1 [Example 186, 1-[(4,5-Dimethyl-2-methoxyphenyl)aminocarbonyl]-4-(2-methoxy-5-phenylphenyl)piperazine]	> 2000 mg/kg								
C=C(C)c1ccccc1N1CCN(C(=O)Nc2cc(C)c(C)cc2OC)CC1 [Example 187, 1-[(4,5-Dimethyl-2-methoxyphenyl)aminocarbonyl]-4-(2-isopropenylphenyl)piperazine]	418 mg/kg								
COc1cc(C)c(C)cc1NC(=S)N1CCN(c2cccc(O)c2)CC1 [Example 206, 1-[(4,5-Dimethyl-2-methoxyphenyl)aminothiocarbonyl]-4-(3-hydroxyphenyl)piperazine]		0.47 µg/mL (≈ 1.27 µM)	0.54 µg/mL (≈ 1.45 µM)	0.52 µg/mL (≈ 1.4 µM)	0.7 µg/mL (≈ 1.88 µM)	0.38 µg/mL (≈ 1.02 µM)			
